Test results as given in patent US20180250230A1, “POLYMERS AND MICROSPHERES” (BIOCOMPATIBLES UK LIMITED, priority 2015, published 2018).

Assay: Elution of dyes from loaded microspheres in PBS
Type: physicochemical
Conditions: from APTA43 microspheres; 1 ml in 200 mL PBS; initial loading 8.6 umols per mL of microspheres
Experimental: Microspheres of each polymer formulation were loaded with equal quantities of each dye. 1 ml samples of dye-loaded microspheres were added to 200 mL of PBS in an amber jar. The microsphere suspensions were rolled to provide continuous mixing. At each time point the eluent was sampled and assayed by UV/Vis spectrophotmetery as above. The volume of sampled eluent was replaced with fresh PBS to maintain the elution volume. FIG. 5 illustrates the elution profiles of each dye from APTA43 microspheres.

O=S(=O)([O-])c1ccc2ccc3cccc4ccc1c2c34.[Na+] [Formulation P1, 1-pyrenesulfonic acid sodium salt]
initial loaded amount released within 60 minutes: 80%

O=S(=O)([O-])c1cc(S(=O)(=O)[O-])c2ccc3c(O)cc(O)c4ccc1c2c43.[Na+].[Na+] [Formulation P2, 6,8-dihydroxypyrene-1,3-disulfonic acid disodium salt]
initial loaded amount released within 60 minutes: 9%

O=S(=O)([O-])c1cc(O)c2ccc3c(S(=O)(=O)[O-])cc(S(=O)(=O)[O-])c4ccc1c2c34.[Na+].[Na+].[Na+] [Formulation P3, 8-hydroxypyrene-1,3,6-trisulfonic acid trisodium salt]
initial loaded amount released within 60 minutes: approximately 3%

O.O=S(=O)([O-])c1cc(S(=O)(=O)[O-])c2ccc3c(S(=O)(=O)[O-])cc(S(=O)(=O)[O-])c4ccc1c2c43.[Na+].[Na+].[Na+].[Na+] [Formulation P4, 1,3,6,8-pyrenetetrasulfonic acid hydrate tetrasodium salt]
initial loaded amount released within 60 minutes: approximately 3%
